In BindingDB's records for doi:10.1021/jm9811209 (Novartis Horsham Research Centre, 1999):

Assay: The compound was evaluated for the inhibitory activity against human thrombin

Ki: 32 nM
SMILES: CC1(C)CNc2c(cccc2S(=O)(=O)NC(CCCNC(=N)N)C(=O)N2CCC(CCO)CC2)C1 (stereo unspecified) [3,3-Dimethyl-1,2,3,4-tetrahydro-quinoline-8-sulfonic acid {4-guanidino-1-[4-(2-hydroxy-ethyl)-piperidine-1-carbonyl]-butyl}-amide]
